Reference: PubChem BioAssay (NCI)
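Test compounds were applied to cells in 96-well plates for 48 hours at 5 doses. The concentration for 50% growth inhibition is given as GI50. At the TGI there is no net growth.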

What was measured:
Test in all cases: NCI anticancer screen, dose series, 48 h
UO-31 renal = test system: UO-31 renal
HCT-116 colon = test system: HCT-116 colon
SF-295 CNS = test system: SF-295 CNS
A549 NSCLC = test system: A549 NSCLC
RXF 393 renal = test system: RXF 393 renal
HS 578T breast = test system: HS 578T breast
BT-549 breast = test system: BT-549 breast
IGROV1 ovarian = test system: IGROV1 ovarian
OVCAR-3 ovarian = test system: OVCAR-3 ovarian
NCI/ADR-RES ovarian = test system: NCI/ADR-RES ovarian
CCRF-CEM leukemia = test system: CCRF-CEM leukemia
OVCAR-4 ovarian = test system: OVCAR-4 ovarian
CAKI-1 renal = test system: CAKI-1 renal
NCI-H522 lung = test system: NCI-H522 lung
EKVX NSCLC = test system: EKVX NSCLC
SN12C renal = test system: SN12C renal
PC-3 prostate = test system: PC-3 prostate
786-0 renal = test system: 786-0 renal
SF-268 CNS = test system: SF-268 CNS
K-562 leukemia = test system: K-562 leukemia
SF-539 CNS = test system: SF-539 CNS
HT29 colon = test system: HT29 colon
SNB-75 CNS = test system: SNB-75 CNS
U251 CNS = test system: U251 CNS
TK-10 renal = test system: TK-10 renal
COLO 205 colon = test system: COLO 205 colon
SW-620 colon = test system: SW-620 colon
MALME-3M melanoma = test system: MALME-3M melanoma
A498 renal = test system: A498 renal
DU-145 prostate = test system: DU-145 prostate
RPMI-8226 leukemia = test system: RPMI-8226 leukemia
HL-60(TB) leukemia = test system: HL-60(TB) leukemia
KM12 colon = test system: KM12 colon
SK-MEL-5 melanoma = test system: SK-MEL-5 melanoma
HCC-2998 colon = test system: HCC-2998 colon
MDA-MB-435 = test system: MDA-MB-435
ACHN renal = test system: ACHN renal
HCT-15 colon = test system: HCT-15 colon
T-47D breast = test system: T-47D breast
NCI-H226 lung = test system: NCI-H226 lung
MDA-MB-231 breast = test system: MDA-MB-231 breast
OVCAR-5 ovarian = test system: OVCAR-5 ovarian
OVCAR-8 ovarian = test system: OVCAR-8 ovarian
NCI-H460 lung = test system: NCI-H460 lung
HOP-92 NSCLC = test system: HOP-92 NSCLC
M14 melanoma = test system: M14 melanoma
NCI-H23 lung = test system: NCI-H23 lung
SNB-19 CNS = test system: SNB-19 CNS
UACC-257 melanoma = test system: UACC-257 melanoma
SK-OV-3 ovarian = test system: SK-OV-3 ovarian
SK-MEL-2 melanoma = test system: SK-MEL-2 melanoma
HOP-62 NSCLC = test system: HOP-62 NSCLC
UACC-62 melanoma = test system: UACC-62 melanoma
MCF7 breast = test system: MCF7 breast
SK-MEL-28 melanoma = test system: SK-MEL-28 melanoma

With `COc1cc2c(cc1OC)[C@@H]1C(=O)c3cc4c(cc3[C@@H]1N(CCN(C)C)C2=O)OCO4` the GI50 (UO-31 renal) was 85.5 nM, the GI50 (HCT-116 colon) was 116 nM and the TGI (HCT-116 colon) was 1530 nM. For the same molecule, the GI50 (SF-295 CNS) was 19.4 nM, the TGI (SF-295 CNS) was 37100 nM and the GI50 (A549 NSCLC) was 171 nM. For the same molecule, the TGI (A549 NSCLC) was 3670 nM, the GI50 (RXF 393 renal) was 1260 nM and the TGI (RXF 393 renal) was > 21600 nM. The GI50 (HS 578T breast) was 11100 nM, the TGI (HS 578T breast) was 38500 nM and the GI50 (BT-549 breast) was 838 nM. For the same molecule, the TGI (BT-549 breast) was 22900 nM, the GI50 (IGROV1 ovarian) was 445 nM and the TGI (IGROV1 ovarian) was > 100000 nM. The GI50 (OVCAR-3 ovarian) was 349 nM, the TGI (OVCAR-3 ovarian) was 1960 nM and the GI50 (NCI/ADR-RES ovarian) was 337 nM. For the same molecule, the TGI (NCI/ADR-RES ovarian) was 14700 nM, the TGI (CCRF-CEM leukemia) was > 100000 nM and the GI50 (OVCAR-4 ovarian) was 768 nM. For the same molecule, the TGI (OVCAR-4 ovarian) was 18300 nM, the TGI (CAKI-1 renal) was 1080 nM and the GI50 (NCI-H522 lung) was 61.1 nM. For the same molecule, the TGI (NCI-H522 lung) was 3200 nM, the GI50 (EKVX NSCLC) was 1260 nM and the TGI (EKVX NSCLC) was 21500 nM. For the same molecule, the GI50 (SN12C renal) was 44.4 nM, the TGI (SN12C renal) was 3740 nM and the GI50 (PC-3 prostate) was 316 nM. The TGI (PC-3 prostate) was 13300 nM, the GI50 (786-0 renal) was < 20.3 nM and the TGI (786-0 renal) was 5020 nM. For the same molecule, the GI50 (SF-268 CNS) was 56 nM, the TGI (SF-268 CNS) was 18100 nM and the GI50 (K-562 leukemia) was 270 nM. The TGI (K-562 leukemia) was > 42400 nM, the GI50 (SF-539 CNS) was 66.9 nM and the TGI (SF-539 CNS) was 11100 nM. The GI50 (HT29 colon) was 104 nM, the GI50 (SNB-75 CNS) was 11100 nM and the TGI (SNB-75 CNS) was 30700 nM. It also gave a GI50 (U251 CNS) of 42.7 nM, a TGI (U251 CNS) of 12000 nM and a GI50 (TK-10 renal) of 1530 nM. For the same molecule, the TGI (TK-10 renal) was 13700 nM, the GI50 (COLO 205 colon) was 663 nM and the TGI (COLO 205 colon) was > 35500 nM. It also gave a GI50 (SW-620 colon) of 36.9 nM, a TGI (SW-620 colon) of 18700 nM and a GI50 (MALME-3M melanoma) of 188 nM. It also gave a TGI (MALME-3M melanoma) of 3660 nM, a GI50 (A498 renal) of 2780 nM and a TGI (A498 renal) of 9430 nM. The GI50 (DU-145 prostate) was 30 nM, the TGI (DU-145 prostate) was 4840 nM and the GI50 (RPMI-8226 leukemia) was 28.9 nM. It also gave a TGI (RPMI-8226 leukemia) of 349 nM, a GI50 (HL-60(TB) leukemia) of 23.7 nM and a TGI (HL-60(TB) leukemia) of 75.2 nM. For the same molecule, the GI50 (KM12 colon) was 355 nM, the TGI (KM12 colon) was 2170 nM and the GI50 (SK-MEL-5 melanoma) was 144 nM. It also gave a TGI (SK-MEL-5 melanoma) of 935 nM, a GI50 (HCC-2998 colon) of 609 nM and a TGI (HCC-2998 colon) of 9770 nM. It also gave a GI50 (MDA-MB-435) of 787 nM, a TGI (MDA-MB-435) of 23500 nM and a GI50 (ACHN renal) of 17.9 nM. It also gave a TGI (ACHN renal) of 452 nM, a GI50 (HCT-15 colon) of 368 nM and a TGI (HCT-15 colon) of 5820 nM. It also gave a GI50 (T-47D breast) of 923 nM, a TGI (T-47D breast) of 31300 nM and a GI50 (NCI-H226 lung) of 210 nM. It also gave a TGI (NCI-H226 lung) of 2280 nM, a GI50 (MDA-MB-231 breast) of 1060 nM and a TGI (MDA-MB-231 breast) of 11800 nM. For the same molecule, the GI50 (OVCAR-5 ovarian) was 1100 nM, the TGI (OVCAR-5 ovarian) was 15500 nM and the GI50 (OVCAR-8 ovarian) was 661 nM. For the same molecule, the TGI (OVCAR-8 ovarian) was 9660 nM, the GI50 (NCI-H460 lung) was < 23.4 nM and the TGI (NCI-H460 lung) was 2360 nM. For the same molecule, the GI50 (HOP-92 NSCLC) was 208 nM, the TGI (HOP-92 NSCLC) was 8870 nM and the GI50 (M14 melanoma) was 81.4 nM. For the same molecule, the TGI (M14 melanoma) was 11200 nM, the GI50 (NCI-H23 lung) was 162 nM and the TGI (NCI-H23 lung) was 5090 nM. For the same molecule, the GI50 (SNB-19 CNS) was 1730 nM, the TGI (SNB-19 CNS) was > 47300 nM and the GI50 (UACC-257 melanoma) was 784 nM. For the same molecule, the TGI (UACC-257 melanoma) was > 33100 nM, the GI50 (SK-OV-3 ovarian) was 4200 nM and the TGI (SK-OV-3 ovarian) was > 65200 nM. The GI50 (SK-MEL-2 melanoma) was 11100 nM, the TGI (SK-MEL-2 melanoma) was > 100000 nM and the GI50 (HOP-62 NSCLC) was 35.5 nM. For the same molecule, the TGI (HOP-62 NSCLC) was 10600 nM, the GI50 (UACC-62 melanoma) was < 14.6 nM and the TGI (UACC-62 melanoma) was 544 nM. For the same molecule, the GI50 (MCF7 breast) was < 36.6 nM, the TGI (MCF7 breast) was 14200 nM and the GI50 (SK-MEL-28 melanoma) was 2190 nM. The TGI (SK-MEL-28 melanoma) was > 41300 nM.
